Consider nine compounds from patent publication US20240122179A1, “AUXINIC HERBICIDES AND METHODS OF USE THEREOF” (CORTEVA AGRISCIENCE LLC, priority 2021, published 2024).

Test in all cases: Postemergence herbicide evaluation, percent reduction in plant size vs untreated control, 21 days after treatment
The subject of experiment [1] is Amaranthus palmeri (AMAPA). It counts as in vivo, Amaranthus palmeri (Palmer amaranth). As to conditions: post-emergence, 504 h, AMAPA, postemergence, read-out: Control/Injury; for pest or weed control at 140 g/ha: rate 140 g ae/ha; for pest or weed control at 280 g/ha: rate 280 g ae/ha. The protocol:
(§1) Plants were grown in a soil media composed of 90% by volume Promix BX (Premier Tech Horticulture, Quakertown, PA) and 10% Profile Greens Grade (Profile Products LLC, Buffalo Grove, IL). Promix BX contains approximately 83% Sphagnum Peat Moss, 13% Perlite, 5% vermiculite, and proprietary amounts of limestone, starter fertilizer, and wetting agent. Profile Greens Grade is a sand-sized granule formed from calcining illite and montmorillonite clay. Several seeds of each species were planted in 10 cm square pots and top watered twice daily. Plant material was propagated in a warm greenhouse with temperature ranging from 25 to 28° C. and 50 to 60% relative humidity at the Corteva Global Headquarters (Indianapolis, Indiana, USA). Natural light was supplemented with 1000-watt metal halide overhead lamps with an average illumination of 500 μE m^−2 s^−1 photosynthetic active radiation for 16 consecutive hours each day. Plants were top-watered prior to herbicide application and sub-watered after herbicide application.
(§2) Appropriate amounts of test materials were weighed out into glass vials in their technical form to deliver either 140 or 280 g acid equivalent (ae)/ha. The samples were dissolved in 3 ml of Solvent 1. Solvent 1 is 97% acetone and 3% dimethyl sulfoxide and serves as a general-purpose solvent (GPS) for dissolving technical materials. […] The samples were then diluted to their final concentration using 17 ml of solvent 2 for a total of 20 ml of spray solution. Solvent 2 contains 41.58% GPS, 45.53% water, 11.88% isopropyl alcohol, 0.99% crop oil concentrate and 0.02% Trition X-155 surfactant. All percentages are listed on a volume basis. Dicamba diglycolamine was applied as a formulated herbicide, Clarity™ and diluted with solvent 2 to compare all materials in the same spray solution.
(§3) Herbicide applications were made to 3 to 4 replicates of each plant species at the 2 to 8 leaf stage, depending on the species. Treatments were applied with a research track-sprayer (Generation III Research Sprayer manufactured by DeVries Manufacturing in Hollandale, MN, USA) calibrated to deliver a spray volume of 187 L/ha. The track-sprayer was fitted with an 8003E nozzle from Spray Systems Company (North Avenue and Schmale Road, P.O. Box 7900, Wheaton, IL 60187), and used a spray pressure of 276 kPa pressure and a speed of 3.1 km/h. The nozzle height was 46 cm above the plant canopy. The experimental design used for the trials was a randomized complete block with 3 or 4 replications per treatment. After application, plants were placed on carts according to the randomization and returned to the greenhouse. Plants were sub-watered after treatment with Indianapolis city water or fertilized three times a week with a commercial fertilizer solution (Jack's Professional 15-5-15 4 Ca 2 Mg fertilizer (manufactured by JR PETERS INC., 6656 Grant Way, Allentown, PA 18106; www.jrpeters.com). Percent visual control assessments were made on a scale of 0 to 100% (where 0 was no control and 100 was complete plant death) at 7, 14, and 21 days after treatment.
In conformity with the methods outlined in Example 49, the effect of representative experimental compounds on the growth of Amaranthus palmeri (AMAPA), common name, Palmer amaranth, was determined at 2 different levels (respectively, 140 and 280 g acid equivalent (ae)/ha) of the experimental actives tested. Plants were treated with one of the compounds, a control plant was not treated. Twenty-one days after treatment, the plants were measured. The data is present as a percent reduction in plant size relative to the untreated control.

Experiment [2] deals with Conyza canadensis (L.) (ERICA). It counts as in vivo, Conyza canadensis (L.) (Horseweed). As to conditions: Erigeron canadensis, post-emergence, 504 h, ERICA, postemergence, read-out: Control/Injury; for pest or weed control at 140 g/ha: rate 140 g ae/ha; for pest or weed control at 280 g/ha: rate 280 g ae/ha. The protocol: as §1, §2, §3
In conformity with the methods outlined in Example 49, the effect of representative experimental compounds on the growth of Conyza canadensis (L.), (ERICA), common name, Horseweed, was determined at 2 different levels (respectively, 140 and 280 g acid equivalent (ae)/ha) of the experimental actives tested. Plants were treated with one of the compounds, a control plant was not treated. Twenty-one days after treatment, the plants were measured. The data is present as a percent reduction in plant size relative to the untreated control.

The test system of experiment [3] is Amaranthus rudis (AMATA). It is filed as in vivo, Amaranthus rudis (tall water hemp). As to conditions: Amaranthus tuberculatus, post-emergence, 504 h, AMATA, postemergence, read-out: Control/Injury; for pest or weed control at 140 g/ha: rate 140 g ae/ha; for pest or weed control at 280 g/ha: rate 280 g ae/ha. As to the method: as §1, §2, §3
In conformity with the methods outlined in Example 49, the effect of representative experimental compounds on the growth of Amaranthus rudis (AMATA), common name tall water hemp, was determined at 2 different levels (respectively, 140 and 280 g acid equivalent (ae)/ha) of the experimental actives tested. Plants were treated with one of the compounds, a control plant was not treated. Twenty-one days after treatment, the plants were measured. The data is present as a percent reduction in plant size relative to the untreated control.

In experiment [4] the test system is Kochia scoparia (KCHSC). It is filed as in vivo. To be noted: Bassia scoparia, post-emergence, 504 h, KCHSC, postemergence, percent reduction vs untreated, 21 days after treatment, read-out: Control/Injury; for pest or weed control at 140 g/ha: rate 140 g ae/ha; for pest or weed control at 280 g/ha: rate 280 g ae/ha. The protocol:
as §1, §2, §3
In conformity with the methods outlined in Example 49, the effect of representative experimental compounds on the growth of Kochia scoparia (KCHSC) was determined at 2 different levels (respectively, 140 and 280 g acid equivalent (ae)/ha) of the experimental actives tested. Plants were treated with one of the compounds, a control plant was not treated. Twenty-one days after treatment, the plants were measured. The data is present as a percent reduction in plant size relative to the untreated control.

Experiment [5] concerns Ambrosia artemisiifolia (AMBEL). It is filed as in vivo, Ambrosia artemisiifolia (common ragweed). As to conditions: post-emergence, 504 h, AMBEL, postemergence, read-out: Control/Injury; for pest or weed control at 140 g/ha: rate 140 g ae/ha; for pest or weed control at 280 g/ha: rate 280 g ae/ha. As to the method: as §1, §2, §3
In conformity with the methods outlined in Example 49, the effect of representative experimental compounds on the growth of Ambrosia artemisiifolia (AMBEL), (common ragweed), was determined at 2 different levels (respectively, 140 and 280 g acid equivalent (ae)/ha) of the experimental actives tested. Plants were treated with one of the compounds, a control plant was not treated. Twenty-one days after treatment, the plants were measured. The data is present as a percent reduction in plant size relative to the untreated control.

In the case of `COc1c(Cl)ccc(Cl)c1C(=O)Oc1nccs1` [Compound A-103], the pest or weed control at 140 g/ha was determined as 35% in experiment [1]; 0% in experiment [2]; 8% in experiment [3]; 0% in experiment [4]; 28% in experiment [5]. The pest or weed control at 280 g/ha turned out to be 30% in experiment [1]; 3% in experiment [2]; 18% in experiment [3]; 3% in experiment [4]; 12% in experiment [5].

For the compound `COc1c(Cl)ccc(Cl)c1C(=O)N1CCCCO1` [Compound A-104], the pest or weed control at 140 g/ha in experiment [1] was determined as 45%; in experiment [2], 0%; in experiment [3] it was 73%; in experiment [4], 3%; in experiment [5], 5%. Also, the pest or weed control at 280 g/ha in experiment [1] turned out to be 65%; in experiment [2], 10%; in experiment [3] it was 92%; in experiment [4], 13%; in experiment [5], 15%.

With `COc1c(Cl)ccc(Cl)c1C(=O)Nc1ccon1` [Compound A-106], the pest or weed control at 140 g/ha in experiment [1] turned out to be 25%; in experiment [2], 5%; in experiment [3] it was 25%; in experiment [4] it was 3%; in experiment [5] it was 25%. Moreover, the pest or weed control at 280 g/ha in experiment [1] was found to be 20%; in experiment [2], 10%; in experiment [3], 28%; in experiment [4] it was 3%; in experiment [5], 28%.

With `CCN(CC)C(=O)c1c(Cl)ccc(Cl)c1OC` [Compound A-107], the pest or weed control at 140 g/ha in experiment [1] amounted to 9%; in experiment [2] it was 3%; in experiment [3], 2%; in experiment [4], 0%; in experiment [5] it was 10%. Moreover, the pest or weed control at 280 g/ha in experiment [1] came out at 18%; in experiment [2], 5%; in experiment [3], 18%; in experiment [4] it was 0%; in experiment [5], 18%.

Consider `COc1c(Cl)ccc(Cl)c1C(=O)NNc1nc(C)cs1` [Compound A-108], for which the pest or weed control at 140 g/ha in experiment [1] amounted to 8%; in experiment [2], 5%; in experiment [3], 18%; in experiment [4], 0%; in experiment [5], 5%. The pest or weed control at 280 g/ha in experiment [1] stood at 28%; in experiment [2] it was 8%; in experiment [3] it was 28%; in experiment [4], 3%; in experiment [5] it was 15%.

On to `COc1c(Cl)ccc(Cl)c1C(=O)NNc1nc2ccccc2o1` [Compound A-109], for which the pest or weed control at 140 g/ha was 8% in experiment [1]; 3% in experiment [2]; 2% in experiment [3]; 0% in experiment [4]; 23% in experiment [5]. Moreover, the pest or weed control at 280 g/ha is 5% in experiment [1]; 5% in experiment [2]; 3% in experiment [3]; 3% in experiment [4]; 20% in experiment [5].

As to `COc1c(Cl)ccc(Cl)c1C(=O)NNCc1ccccc1` [Compound A-111], the pest or weed control at 140 g/ha in experiment [1] turned out to be 20%; in experiment [2], 8%; in experiment [3], 18%; in experiment [4], 5%; in experiment [5] it was 25%. Also, the pest or weed control at 280 g/ha worked out at 33% in experiment [1]; 10% in experiment [2]; 28% in experiment [3]; 5% in experiment [4]; 35% in experiment [5].

With `CCCNNC(=O)c1c(Cl)ccc(Cl)c1OC` [Compound A-112], the pest or weed control at 140 g/ha was 18% in experiment [1]; 10% in experiment [2]; 13% in experiment [3]; 0% in experiment [4]; 18% in experiment [5]. The pest or weed control at 280 g/ha in experiment [1] was 33%; in experiment [2] it was 10%; in experiment [3], 20%; in experiment [4], 18%; in experiment [5], 38%.

With `COc1c(Cl)ccc(Cl)c1C(=O)n1ncc2ccccc21` [Compound A-113], the pest or weed control at 140 g/ha stood at 40% in experiment [1]; 50% in experiment [2]; 50% in experiment [3]; 85% in experiment [4]; 70% in experiment [5]. Moreover, the pest or weed control at 280 g/ha amounted to 70% in experiment [1]; 99% in experiment [2]; 63% in experiment [3]; 93% in experiment [4]; 90% in experiment [5].
